Laboratory results as given in patent US6316472A, “Heterosubstituted pyridine derivatives as PDE 4 inhibitors” (Merck Frosst Canada & Co., priority 2000, dated 2001).

Target: T1, GST-Met 248 PDE 4a (Homo sapiens, UniProt P27815)
T1 construct: human recombinant phosphodiesterase IVa (met-248); made in house; host or cells: baculovirus/Sf-9 insect cells
Assay: SPA based PDE Activity Assay (hydrolysis of cAMP to AMP)
Type: biochemical
Conditions: 100 nM cAMP; purified GST fusion protein of human recombinant phosphodiesterase IVa (met-248), baculovirus/Sf-9; 30° C., 10 min
Protocol: SPA based PDE Activity Assay Protocol
Compounds which inhibit the hydrolysis of cAMP to AMP by the type-IV cAMP-specific phosphodiesterases were screened in 96-well plate format as follows:
In a 96 well-plate at 30° C. was added the test compound (dissolved in 2 μl DMSO), […] of substrate buffer containing [2,8-^3 H] adenosine 3',5'-cyclic phosphate (cAMP, 100 nM to 50 μM), 10 mM MgCl2, 1 mM EDTA, 50 mM Tris, pH 7.5. The reaction was initiated by the addition of […] of human recombinant PDE-IV (the amount was controlled so that ~10% product was formed in 10 min.). The reaction was stopped after 10 min. by the addition of 1 mg of PDE-SPA beads (Amersham). The product AMP generated was quantified on a Microbeta 96-well plate counter. The signal in the absence of enzyme was defined as the background. 100% activity was defined as the signal detected in the presence of enzyme and DMSO with the background subtracted. Percentage of inhibition was calculated accordingly. IC50 value was approximated with a non-linear regression fit using the standard 4-parameter/multiple binding sites equation from a ten point titration.
IC50 values shown in Table 7 were determined with 100 nM cAMP using the purified GST fusion protein of the human recombinant phosphodiesterase IVa (met-248) produced from a baculovirus/Sf-9 expression system.

T1 sequence (P27815 248-886 limits assumed): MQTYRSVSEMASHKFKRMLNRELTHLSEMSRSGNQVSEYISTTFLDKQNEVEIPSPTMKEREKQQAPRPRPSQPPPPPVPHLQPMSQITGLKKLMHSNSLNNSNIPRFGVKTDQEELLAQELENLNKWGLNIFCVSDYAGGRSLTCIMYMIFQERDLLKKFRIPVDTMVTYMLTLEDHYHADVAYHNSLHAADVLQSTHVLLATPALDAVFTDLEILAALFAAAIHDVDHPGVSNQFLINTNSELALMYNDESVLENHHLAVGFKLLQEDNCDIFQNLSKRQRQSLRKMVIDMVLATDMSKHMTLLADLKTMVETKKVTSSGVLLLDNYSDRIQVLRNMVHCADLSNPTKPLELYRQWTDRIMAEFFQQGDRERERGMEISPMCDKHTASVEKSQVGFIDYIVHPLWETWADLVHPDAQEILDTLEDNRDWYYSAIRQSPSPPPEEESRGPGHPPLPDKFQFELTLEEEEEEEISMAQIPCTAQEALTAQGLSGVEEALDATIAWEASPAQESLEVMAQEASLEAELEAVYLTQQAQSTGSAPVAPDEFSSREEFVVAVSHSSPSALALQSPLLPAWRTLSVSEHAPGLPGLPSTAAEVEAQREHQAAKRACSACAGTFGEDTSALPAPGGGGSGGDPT

IC50 [µM] | SMILES
0.00545 | NS(=O)(=O)c1cccc(Sc2ccc(C(Cc3ccncc3)c3ccc(OC(F)F)c(OC(F)F)c3)cn2)c1 (centres unmarked) [Example 1, 4-{2-[3,4-Bis(difluoromethoxy)phenyl]-2-{6-[3-(aminosulfonyl)benzenethiol]3-pyridyl}ethyl}pyridine]
0.0212 | O=[N+]([O-])c1ccc(S(=O)(=O)c2ccc(C(Cc3cc[n+]([O-])cc3)c3ccc(OC(F)F)c(OC(F)F)c3)cn2)cc1 (centres unmarked) [Example 4, 4-{2-[3,4-Bis(difluoromethoxy)phenyl]-2-[6-(4-nitrobenzenesulfonyl)3-pyridyl]ethyl}pyridine-N-oxide]
